Test results: US8895585B2, “Nicotinamide derivative or salt thereof” (FUJIFILM Corporation, priority 2010, dated 2014)
Counter-ions that a name gives are not always drawn. Like-named read-outs stand apart in the source and are kept apart here.

What was measured:
[1] = target: T1, glutathione S-transferase (GST)-fused full-length human Syk protein (Homo sapiens, UniProt P43405); assay: Syk enzyme assay; type: biochemical
T1 construct: (GST)-fused full-length human Syk protein; GST (glutathione S-transferase); purchased Carna Biosciences
Summary of the method: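 IC50 values come from a time-resolved FRET readout (615 and 665 nm) of substrate phosphorylation, measured after an EDTA stop and 1 h antibody binding. The kinase reaction ran 40 min at room temperature with 27 μM ATP and 0.4 μM biotin-peptide, following a 15 min compound preincubation with baculovirus-made GST-full-length human Syk.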

THP-1 cells = assay: TNFα generation assay; type: cell-based, human; conditions: Homo sapiens
Summary of the method: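 Secreted TNFα in supernatant quantified by ELISA or AlphaLISA after 7 h culture on human IgG-coated wells (10 μg/ml coating). Cells were IFN-γ-differentiated THP-1 (10 ng/ml, 2 days), exposed to compound for 30 min at room temperature before plating.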

[2] = read-out: Syk-inhibitory activity (IC50)
[3] = THP-1, 7 h, IFN-γ-differentiated THP-1 cells on human IgG-coated plate, cultured 7 hours, read-out: TNFα generation inhibitory activity (IC50)
[4] = Syk enzyme assay, Test Example 1, read-out: IC50 of Syk-inhibitory activity
[5] = THP-1, THP-1 cells, Table 22, read-out: IC50 in TNFα generation assay

SMILES | IC50 [1, 2] [nM] | IC50 (THP-1 cells; [3]) [nM] | IC50 [1, 4] [nM] | IC50 (THP-1 cells; [5]) [nM]
NC(=O)c1cc(F)c(N[C@@H]2CCCC[C@@H]2N)nc1Nc1cnc2ccccc2c1 (relative stereo) [Example 7, 6-(cis-2-aminocyclohexylamino)-5-fluoro-2-(quinolin-3-ylamino)nicotinamide] | ≤ 1000 | ≤ 200 |  | 
NC(=O)c1cc(F)c(N[C@@H]2CCCC[C@@H]2N)nc1Nc1cnc2ncccc2c1 (relative stereo) [Example 10-2, 6-(cis-2-aminocyclohexylamino)-5-fluoro-2-((1,8-naphthyridin-3-yl)amino)nicotinamide] | ≤ 1000 | ≤ 200 |  | 
NC(=O)c1cc(F)c(N[C@@H]2CCCC[C@@H]2N)nc1Nc1cncc(NC(=O)c2ccccn2)c1 (relative stereo) [Example 027-020, N-(5-(6-(cis-2-aminocyclohexylamino)-3-carbamoyl-5-fluoropyridin-2-yl)aminopyridin-3-yl)picolinamide] |  |  | 10 to 50 | 130 to 200
CN(C)C(=O)c1cc2cc(Nc3nc(N[C@@H]4CCCC[C@@H]4N)c(F)cc3C(N)=O)ccc2[nH]1 (relative stereo) [Example 029-016, 5-((6-(cis-2-aminocyclohexylamino)-3-carbamoyl-5-fluoropyridin-2-yl)amino)-N,N-dimethyl-1H-indole-2-carboxamide] |  |  | < 10 | 130 to 200
Cc1cncc(Nc2nc(N[C@@H]3CCCC[C@@H]3N)c(Cl)cc2C(N)=O)c1 (relative stereo) [Example 34, 6-(cis-2-aminocyclohexylamino)-5-chloro-2-(5-methylpyridin-3-ylamino)nicotinamide•hydrochloride] | ≤ 1000 | ≤ 200 |  | 
NC(=O)c1cc(F)c(N[C@@H]2CCCC[C@@H]2N)nc1Nc1cc(N)c2ncccc2c1 (relative stereo) [Example 41-1, 6-(cis-2-aminocyclohexylamino)-2-((8-aminoquinolin-6-yl)amino)-5-fluoronicotinamide] |  |  | < 10 | 130 to 200
CCS(=O)(=O)Nc1cccc2cc(Nc3nc(N[C@@H]4CCCC[C@@H]4N)c(F)cc3C(N)=O)cnc12 (relative stereo) [Example 41-12, 6-(cis-2-aminocyclohexylamino)-2-((8-(ethylsulphonamide)quinolin-3-yl)amino)-5-fluoronicotinamide] |  |  | < 10 | 130 to 200
NC(=O)c1cc(F)c(N[C@@H]2CCCC[C@@H]2N)nc1Nc1cncc2ccccc12 (single isomer, unassigned) [Example 9, 6-(cis-2-aminocyclohexylamino)-5-fluoro-2-(isoquinolin-4-ylamino)nicotinamide•hydrochloride] | ≤ 1000 | ≤ 200 |  | 
COc1cc(Nc2nc(N[C@@H]3CCCC[C@@H]3N)c(F)cc2C(N)=O)cc(OC)c1 (single isomer, unassigned) [Example 21, 6-(cis-2-aminocyclohexylamino)-2-(3,5-dimethoxyphenylamino)-5-fluoronicotinamide] | ≤ 1000 | ≤ 200 |  | 
COc1cc(Nc2nc(NC3CCCCC3N)c(F)cc2C(N)=O)cc(OC)c1OC (centres unmarked) [Example 002-007] |  |  | 10 to 50 | 65 to 130
Cc1cc(Nc2nc(NC3CCCCC3N)c(F)cc2C(N)=O)cnc1C (centres unmarked) [Example 002-024] |  |  | < 10 | 130 to 200
NC(=O)c1cc(F)c(NC2CCCCC2N)nc1Nc1cccc2[nH]ncc12 (centres unmarked) [Example 002-025] |  |  | < 10 | 65 to 130
COCCn1ncc2c(Nc3nc(NC4CCCCC4N)c(F)cc3C(N)=O)cccc21 (centres unmarked) [Example 002-030] |  |  | < 10 | 130 to 200
NC(=O)c1cc(F)c(NC2CCCCC2N)nc1Nc1cccc2nn(CC3CC3)cc12 (centres unmarked) [Example 002-032] |  |  | < 10 | 130 to 200
NC(=O)c1cc(F)c(NC2CCCCC2N)nc1Nc1ccc2nn(Cc3ccccc3)cc2c1 (centres unmarked) [Example 002-037] |  |  | < 10 | 130 to 200
CCc1cncc(Nc2nc(NC3CCCCC3N)c(F)cc2C(N)=O)c1 (centres unmarked) [Example 002-038] |  |  | < 10 | 65 to 130
Cn1cc2cc(Nc3nc(NC4CCCCC4N)c(F)cc3C(N)=O)ccc2n1 (centres unmarked) [Example 002-041] |  |  | < 10 | 65 to 130
COCCn1ncc2ccc(Nc3nc(NC4CCCCC4N)c(F)cc3C(N)=O)cc21 (centres unmarked) [Example 002-048] |  |  | < 10 | 130 to 200
NC(=O)c1cc(F)c(NC2CCCCC2N)nc1Nc1ccnc(-c2ccco2)c1 (centres unmarked) [Example 002-053] |  |  | < 10 | 65 to 130
NC(=O)c1cc(F)c(NC2CCCCC2N)nc1Nc1ccnc(N2CCCC2=O)c1 (centres unmarked) [Example 002-054] |  |  | 10 to 50 | 65 to 130
CC(C)Oc1cc(Nc2nc(NC3CCCCC3N)c(F)cc2C(N)=O)ccn1 (centres unmarked) [Example 002-055] |  |  | < 10 | 130 to 200
NC(=O)c1cc(F)c(NC2CCCCC2N)nc1Nc1ccnc(-c2ccoc2)c1 (centres unmarked) [Example 002-057] |  |  | < 10 | 65 to 130
CNc1cc(Nc2nc(NC3CCCCC3N)c(F)cc2C(N)=O)ccn1 (centres unmarked) [Example 002-058] |  |  | < 10 | 65 to 130
CCNc1cc(Nc2nc(NC3CCCCC3N)c(F)cc2C(N)=O)ccn1 (centres unmarked) [Example 002-059] |  |  | 10 to 50 | 130 to 200
CCOc1cc(Nc2nc(NC3CCCCC3N)c(F)cc2C(N)=O)ccn1 (centres unmarked) [Example 002-060] |  |  | < 10 | 65 to 130
COCCOc1cc(Nc2nc(NC3CCCCC3N)c(F)cc2C(N)=O)ccn1 (centres unmarked) [Example 002-066] |  |  | < 10 | 130 to 200

SMILES | IC50 [1, 2] [nM] | IC50 (THP-1 cells; [3]) [nM] | IC50 [1, 4] [nM] | IC50 (THP-1 cells; [5]) [nM]
CNc1ccc(Nc2nc(NC3CCCCC3N)c(F)cc2C(N)=O)cn1 (centres unmarked) [Example 002-073] |  |  | 10 to 50 | 130 to 200
COCCOc1ccc2cc(Nc3nc(NC4CCCCC4N)c(F)cc3C(N)=O)ccc2n1 (centres unmarked) [Example 002-097] |  |  | < 10 | 130 to 200
CCOCCOCCOc1ccc2cc(Nc3nc(NC4CCCCC4N)c(F)cc3C(N)=O)ccc2n1 (centres unmarked) [Example 002-100] |  |  | < 10 | 130 to 200
COCCOCCOc1ccc2cc(Nc3nc(NC4CCCCC4N)c(F)cc3C(N)=O)ccc2n1 (centres unmarked) [Example 002-110] |  |  | < 10 | 130 to 200
NC(=O)c1cc(F)c(NC2CCCCC2N)nc1Nc1ccc2nc(OCCN3CCCC3=O)ccc2c1 (centres unmarked) [Example 002-113] |  |  | < 10 | 130 to 200
NC(=O)c1cc(F)c(NC2CCCCC2N)nc1Nc1ccnc(-n2cncn2)c1 (centres unmarked) [Example 002-114] |  |  | < 10 | < 65
Cn1c(=O)ccc2cc(Nc3nc(NC4CCCCC4N)c(F)cc3C(N)=O)cnc21 (centres unmarked) [Example 002-115] |  |  | 10 to 50 | 130 to 200
Cc1ncc(Nc2nc(NC3CCCCC3N)c(F)cc2C(N)=O)cc1-c1ccoc1 (centres unmarked) [Example 002-117] |  |  | < 10 | 65 to 130
Cc1ncc(Nc2nc(NC3CCCCC3N)c(F)cc2C(N)=O)cc1C1CC1 (centres unmarked) [Example 002-118] |  |  | 10 to 50 | 130 to 200
Cc1nc2ccc(Nc3nc(NC4CCCCC4N)c(F)cc3C(N)=O)cc2nc1C (centres unmarked) [Example 002-123] |  |  | < 10 | 130 to 200
CCn1ncc2cc(Nc3nc(NC4CCCCC4N)c(F)cc3C(N)=O)ccc21 (centres unmarked) [Example 002-125] |  |  | < 10 | 65 to 130
CCCn1ncc2cc(Nc3nc(NC4CCCCC4N)c(F)cc3C(N)=O)ccc21 (centres unmarked) [Example 002-126] |  |  | < 10 | 65 to 130
NC(=O)c1cc(F)c(NC2CCCCC2N)nc1Nc1ccnc(-c2ccccc2F)c1 (centres unmarked) [Example 002-131] |  |  | < 10 | 65 to 130
NC(=O)c1cc(F)c(NC2CCCCC2N)nc1Nc1cncc(-n2cncn2)c1 (centres unmarked) [Example 002-137] |  |  | < 10 | 130 to 200
COc1cccc(-c2cc(Nc3nc(NC4CCCCC4N)c(F)cc3C(N)=O)ccn2)c1F (centres unmarked) [Example 002-139] |  |  | < 10 | 65 to 130
COc1ccc(-c2cc(Nc3nc(NC4CCCCC4N)c(F)cc3C(N)=O)ccn2)c(F)c1 (centres unmarked) [Example 002-140] |  |  | < 10 | 130 to 200
COc1ccc(F)c(-c2cc(Nc3nc(NC4CCCCC4N)c(F)cc3C(N)=O)ccn2)c1 (centres unmarked) [Example 002-141] |  |  | < 10 | 65 to 130
NC(=O)c1cc(F)c(NC2CCCCC2N)nc1Nc1ccc(C2CC2)nc1 (centres unmarked) [Example 002-142] |  |  | < 10 | 130 to 200
NC(=O)c1cc(F)c(NC2CCCCC2N)nc1Nc1ccnc(-c2cccc(F)c2F)c1 (centres unmarked) [Example 002-144] |  |  | < 10 | 130 to 200
COc1ncc(Nc2nc(NC3CCCCC3N)c(F)cc2C(N)=O)cc1-n1nccn1 (centres unmarked) [Example 002-155] |  |  | 10 to 50 | 65 to 130
NC(=O)c1cc(F)c(NC2CCCCC2N)nc1Nc1ccc(-n2cccn2)nc1 (centres unmarked) [Example 002-160] |  |  | 10 to 50 | 130 to 200
Cc1nccc(Nc2nc(NC3CCCCC3N)c(F)cc2C(N)=O)c1F (centres unmarked) [Example 002-163] |  |  | 10 to 50 | 130 to 200
NC(=O)c1cc(F)c(NC2CCCCC2N)nc1Nc1ccnc(N2CCOCC2)c1F (centres unmarked) [Example 002-165] |  |  | 10 to 50 | 65 to 130
NC(=O)c1cc(F)c(NC2CCCCC2N)nc1Nc1cnnc(-c2ccccc2)c1 (centres unmarked) [Example 002-169] |  |  | 10 to 50 | 130 to 200
COc1ccc(-c2cncc(Nc3nc(NC4CCCCC4N)c(F)cc3C(N)=O)c2)cc1OC (centres unmarked) [Example 002-170] |  |  | 10 to 50 | 65 to 130
NC(=O)c1cc(F)c(NC2CCCCC2N)nc1Nc1cncc(-c2ccc([N+](=O)[O-])cc2)c1 (centres unmarked) [Example 002-172] |  |  | 10 to 50 | 130 to 200
